The assay concerns the target T1, human HSD-1 (recombinant HSD-1) (Homo sapiens, UniProt P28845).
T1 construct: made in house
Nature of the assay: HSD-1 activity inhibitory action in vitro (SPA, conversion of cortisone to cortisol). The assay is classed as biochemical. To be noted: recombinant human HSD-1 expressed using baculovirus system; 10 nM 3H cortisone, 500 μM NADPH; room temperature 90 to 120 min; read-out: hHSD1 (IC50 (nM)).

Counter-ions that a name gives are not always drawn.

T1 sequence (P28845 whole entry): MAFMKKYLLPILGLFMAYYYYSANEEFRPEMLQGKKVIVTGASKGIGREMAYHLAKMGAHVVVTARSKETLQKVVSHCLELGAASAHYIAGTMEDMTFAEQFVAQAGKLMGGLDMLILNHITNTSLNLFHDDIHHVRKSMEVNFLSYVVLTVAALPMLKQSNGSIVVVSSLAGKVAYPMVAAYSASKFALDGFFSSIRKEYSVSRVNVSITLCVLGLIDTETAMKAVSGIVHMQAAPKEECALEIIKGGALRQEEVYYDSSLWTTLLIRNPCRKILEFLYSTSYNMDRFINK

As to `CC1(C(=O)N2CCC(n3ncc(C(=O)N4CC[C@@H](c5ccccc5C(F)(F)F)C4)c3C3CC3)CC2)CC1` [Example 69, 1-{5-cyclopropyl-1-[1-(1-methylcyclopropanecarbonyl)piperidin-4-yl]-1H-pyrazole-4-carbonyl}-[(S)-3-(2-trifluoromethylphenyl)]pyrrolidine], the IC50 was less than 30 nM. Next, `NC(=O)CCN1CCC(n2ncc(C(=O)N3CC[C@@H](c4ccccc4C(F)(F)F)C3)c2C2CC2)CC1` [Example 97, 1-{1-[1-(2-carbamoylethyl)piperidin-4-yl]-5-cyclopropyl-1H-pyrazole-4-carbonyl}-[(S)-3-(2-trifluoromethylphenyl)]pyrrolidine hydrochloride]: less than 30 nM. Turning to `O=C(c1cnn(C2CCN(c3ccc(N4CCOC4=O)cc3)CC2)c1C1CC1)N1CCC(c2ccccc2C(F)(F)F)C1` (stereo not shown) [Example 169, 1-(5-cyclopropyl-1-{1-[4-(2-oxooxazolidin-3-yl)phenyl]piperidin-4-yl}-1H-pyrazole-4-carbonyl)-3-(2-trifluoromethylphenyl)pyrrolidine], the 50% inhibitory concentration (IC50) was less than 30 nM.

Turning to `CC1(c2c(C(=O)N3CCC(c4ccccc4C(F)(F)F)C3)cnn2[C@H]2CC[C@H](C(=O)Nc3ccccc3F)CC2)CC1` (stereo partly drawn) [Example 190, 1-{5-(1-methylcyclopropyl)-1-[trans-4-(2-fluorophenylcarbamoyl)cyclohexyl]-1H-pyrazole-4-carbonyl}-3-(2-trifluoromethylphenyl)pyrrolidine], the IC50 was less than 30 nM. Next, `Cc1nc(N2CCC(n3ncc(C(=O)N4CC[C@@H](c5ccccc5C(F)(F)F)C4)c3C3CC3)CC2)n[nH]1` [Example 117, 1-{5-cyclopropyl-1-[1-(5-methyl-4H-[1,2,4]triazol-3-yl)piperidin-4-yl]-1H-pyrazole-4-carbonyl}-[(S)-3-(2-trifluoromethylphenyl)]pyrrolidine hydrochloride]: less than 30 nM; `CS(=O)(=O)Nc1ccc(N2CCC(n3ncc(C(=O)N4CCC(c5ccccc5C(F)(F)F)C4)c3C3CC3)CC2)cc1` (stereo not shown) [Example 171, 1-{5-cyclopropyl-1-[1-(4-methanesulfonylaminophenyl)piperidin-4-yl]-1H-pyrazole-4-carbonyl}-3-(2-trifluoromethylphenyl)pyrrolidine]: less than 30 nM. Then `O=C(NCCN1CCCCC1)N1CCC(n2ncc(C(=O)N3CC[C@@H](c4ccccc4C(F)(F)F)C3)c2C2CC2)CC1` [Example 17, 1-{5-cyclopropyl-1-[1-(2-piperidin-1-yl-ethylcarbamoyl)piperidin-4-yl]-1H-pyrazole-4-carbonyl}-[(S)-3-(2-trifluoromethylphenyl)]pyrrolidine hydrochloride], with less than 30 nM; and `O=C(O)c1csc(N2CCC(n3ncc(C(=O)N4CCC(c5ccccc5C(F)(F)F)C4)c3C3CC3)CC2)n1` (stereo not shown) [Example 116, 2-(4-{5-cyclopropyl-4-[3-(2-trifluoromethylphenyl)pyrrolidine-1-carbonyl]pyrazol-1-yl}piperidin-1-yl)thiazole-4-carboxylic acid], with less than 30 nM; and `COC1(c2c(C(=O)N3CCC(c4ccccc4C(F)(F)F)C3)cnn2C2CCN(C(=O)Nc3ccccc3F)CC2)CC1` (stereo not shown) [Example 134, 1-{1-[1-(2-fluorophenylcarbamoyl)piperidin-4-yl]-5-(1-methoxycyclopropyl)-1H-pyrazole-4-carbonyl}-3-(2-trifluoromethylphenyl)pyrrolidine], with less than 30 nM.

Turning to `CC(C)(CC(=O)N1CCC(n2ncc(C(=O)N3CCC(c4ccccc4C(F)(F)F)C3)c2C2CC2)CC1)C(=O)O` (stereo not shown) [Example 154, 1-{1-[1-(3-carboxy-3-methyl-butyryl)piperidin-4-yl]-5-cyclopropyl-1H-pyrazole-4-carbonyl}-3-(2-trifluoromethylphenyl)pyrrolidine], the concentration for half-maximal inhibition (IC50) is less than 30 nM. Next, `O=C(NS(=O)(=O)c1ccccc1)N1CCC(n2ncc(C(=O)N3CC[C@@H](c4ccccc4C(F)(F)F)C3)c2C2CC2)CC1` [Example 55, 1-[1-(1-benzenesulfonylaminocarbonylpiperidin-4-yl)-5-cyclopropyl-1H-pyrazole-4-carbonyl]-[(S)-3-(2-trifluoromethylphenyl)]pyrrolidine]: less than 30 nM.

`CC(C)[C@@H](C(=O)O)N(C)C(=O)[C@H]1CC[C@H](n2ncc(C(=O)N3CCC(c4ccccc4C(F)(F)F)C3)c2C2CC2)CC1` (stereo partly drawn) [Example 189, (S)-2-[(trans-4-{5-cyclopropyl-4-[3-(2-trifluoromethylphenyl)pyrrolidine-1-carbonyl]pyrazol-1-yl}cyclohexanecarbonyl)methylamino]-3-methylbutyric acid]: the IC50 is less than 30 nM. For `N#C/N=C(\N)N1CCC(n2ncc(C(=O)N3CC[C@@H](c4ccccc4C(F)(F)F)C3)c2C2CC2)CC1` [Example 112, 1-{1-[1-(N-cyanocarbamimidoyl)piperidin-4-yl]-5-cyclopropyl-1H-pyrazole-4-carbonyl}-[(S)-3-(2-trifluoromethylphenyl)]pyrrolidine], the 50% inhibitory concentration (IC50) was less than 30 nM. As for `O=C(COc1ccccc1)N1CCC(n2ncc(C(=O)N3CCC(c4cccnc4)C3)c2C2CC2)CC1` (stereo not shown) [Example 155, 1-{5-cyclopropyl-1-[1-(2-phenoxyacetyl)piperidin-4-yl]-1H-pyrazole-4-carbonyl}-3-(pyridin-3-yl)pyrrolidine], the IC50 is less than 30 nM. Next, `CC(=O)OCCC1(c2ccc(F)cc2)CCN(C(=O)c2cnn(C3CCN(c4ncccn4)CC3)c2C2(C)CC2)C1` (stereo not shown) [Example 176, 3-(2-acetoxyethyl)-3-(4-fluorophenyl)-1-{5-(1-methylcyclopropyl)-1-[1-(pyrimidin-2-yl)piperidin-4-yl]-1H-pyrazole-4-carbonyl}pyrrolidine hydrochloride]: less than 30 nM; `O=C(NC1(CO)CC1)N1CCC(n2ncc(C(=O)N3CC[C@@H](c4ccccc4C(F)(F)F)C3)c2C2CC2)CC1` [Example 7, 1-{5-cyclopropyl-1-[1-(1-hydroxymethylcyclopropylcarbamoyl)piperidin-4-yl]-1H-pyrazole-4-carbonyl}-[(S)-3-(2-trifluoromethylphenyl)]pyrrolidine]: less than 30 nM; `O=C(c1cnn(C2CCNCC2)c1C1CC1)N1CC[C@@H](c2ccccc2C(F)(F)F)C1` [Example 2, 1-[5-cyclopropyl-1-(piperidin-4-yl)-1H-pyrazole-4-carbonyl]-[(S)-3-(2-trifluoromethylphenyl)]pyrrolidine hydrochloride]: less than 30 nM. `O=C(c1cnn(C2CCN(C(=O)N3CCC(F)(F)CC3)CC2)c1C1CC1)N1CC[C@@H](c2ccccc2C(F)(F)F)C1` [Example 18, 1-{5-cyclopropyl-1-[1-(4,4-difluoropiperidine-1-carbonyl)piperidin-4-yl]-1H-pyrazole-4-carbonyl}-[(S)-3-(2-trifluoromethylphenyl)]pyrrolidine]: the half-inhibitory concentration (IC50) was less than 30 nM. Next, `NC(=O)CN1CCC(n2ncc(C(=O)N3CC[C@@H](c4ccccc4C(F)(F)F)C3)c2C2CC2)CC1` [Example 94, 1-[1-(1-carbamoylmethylpiperidin-4-yl)-5-cyclopropyl-1H-pyrazole-4-carbonyl]-[(S)-3-(2-trifluoromethylphenyl)]pyrrolidine hydrochloride]: less than 30 nM.

Source of the values: patent publication US20100010219A1, “METHOD FOR PRODUCING PYRROLIDINE COMPOUND” (JAPAN TOBACCO INC., priority 2006, published 2010).
